What was measured:
K-Ras G12S = biological target: T1, K-Ras G12S (Homo sapiens, UniProt P01116, G12S); test: HTRF assay of the K-Ras / SOS1 interaction; type: biochemical; conditions: IC50 (against K-Ras G12D) to IC50 (against K-Ras G12S)
T1 construct: made in house; host or cells: E. coli (e.g., BL21 (DE3))
In short: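 GST-K-Ras G12S with anti-GST-Eu donor and His-hSOS1 with anti-6His-XL665 acceptor in ~5 mM HEPES pH 7.4, ~150 mM NaCl, 1 mM DTT, 0.05% BSA, 0.0025% Igepal. Read after ~10 min or longer; IC50 from 665/620 nm ratio, duplicates at 10 µM down to 0.01 µM.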

GP2D cells = test: Cell proliferation assay (CellTiter-Glo), K-Ras G12D cells; type: cell-based; conditions: GP2D cells (K-Ras G12D); read-out: Inhibition of GP2D Cells (IC50)
In short: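 GP2D (K-Ras G12D) cells seeded in DMEM with 2 mM glutamine and 10% FBS, then dosed next day with a dilution series (e.g., 9-point 3-fold). Viability read by CellTiter-Glo luminescence after about 5 days. IC50 from four-parameter fit.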

[1] = Metabolic (microsomal) stability assay; type: in vitro ADME; conditions: mouse and/or human liver microsomal metabolism assays, greater than 10, 20, 30, 40, 50, 60 mins or longer
Procedure: All incubations are conducted in duplicate. […] Supernatants (40 µL) are transferred into clean 96-deep well plates.
The column temperature is maintained at 40 °C.
(Ct)/(C0) = e^−kt [formula]

[2] = biological target: T2, KRAS protein (His-tagged GDP-loaded G12S 1-169) (Homo sapiens, UniProt P01116, G12S); test: Covalent modification of KRAS protein, intact-protein LC-MS; type: binding; conditions: 24hrs at room temperature, KRAS protein ~2 µM
T2 construct: His-tagged GDP-loaded G12S 1-169
In short: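 His-tagged GDP-loaded KRAS 1-169 (~2 µM) incubated with compound 24 h at room temperature, then quenched with formic acid. Intact-protein LC-ESI-MS on C4 column; deconvoluted peak intensities of unmodified and adducted protein give percent covalent modification.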

A549 cells = test: Cell proliferation assay (CellTiter-Glo), K-Ras G12S cells; type: cell-based; conditions: for IC50: Homo sapiens, A549, A549 cells (K-Ras G12S), bin ≤ 500 nM, read-out: Inhibition of A549 Cells (IC50)
In short: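 A549 cells (K-Ras G12S) in RPMI-1640 with 10% FBS, seeded in standard or ultra-low-attachment plates and dosed next day with a 10-point 3-fold series. Viability read about 6 days later by CellTiter-Glo luminescence. IC50 from four-parameter fit.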

SMILES | IC50 (A549 cells) [µM] | ratio of IC50 against a G12D cell line to IC50 against a G12S cell line (A549 cells; K-Ras G12D cell line such as GP2D relative to K-Ras G12S cell line such as A549, greater than 1, 2, 3, 4, 5, 10, 15 or even greater, 8640 min) | Ratio of IC50 KRAS G12D vs. IC50 KRAS G12S (K-Ras G12S) | IC50 (GP2D cells) [µM] | half-life at 0.5 µM ([1]; liver microsomes, pH 7.4) [min] | % G12S Modification at 24 hr. [2] | T1/2 ([1]; 0.5 µM)
N#Cc1cnn(C(=O)N2C3CCC2CN(c2nc(OC[C@@]45CCCN4C[C@H](F)C5)nc4c(F)c(-c5ccc(F)c6sc(N)c(C#N)c56)c(Cl)cc24)C3)c1 [Compound A278, 1-(3-(7-(2-amino-3-cyano-7-fluorobenzo[b]thiophen-4-yl)-6-chloro-8-fluoro-2-(((2R,7aS)-2-fluorotetrahydro-1H-pyrrolizin-7a(5H)-yl)methoxy)quinazolin-4-yl)-3,8-diazabicyclo[3.2.1]octane-8-carbonyl)-1H-pyrazole-4-carbonitrile] | – | – | A (A: indicates that the ratio of IC50 against KrasG12D vs. IC50 against KrasG12S is 1-fold or greater) | ≤ 1 | > 10 | – | –
N#Cc1c(N)sc2c(F)ccc(-c3c(Cl)cc4c(N5CC6CCC(C5)N6C(=O)n5ncnc5Cl)nc(OC[C@@]56CCCN5C[C@H](F)C6)nc4c3F)c12 [Compound A194] | – | – | A (A: indicates that the ratio of IC50 against KrasG12D vs. IC50 against KrasG12S is 1-fold or greater) | ≤ 1 | – | ++ (++ indicates between about 1%- 20% labelling) | greater than 10 mins
C#Cc1c(F)ccc2cc(O)cc(-c3ncc4c(N5CCCCC6(CN(C(=O)n7cncn7)C6)C5)nc(OC[C@@]56CCCN5C[C@H](F)C6)nc4c3F)c12 [Compound A128, (6-(7-(8-ethynyl-7-fluoro-3-hydroxynaphthalen-1-yl)-8-fluoro-2-(((2R,7aS)-2-fluorotetrahydro-1H-pyrrolizin-7a(5H)-yl)methoxy)pyrido[4,3-d]pyrimidin-4-yl)-2,6-diazaspiro[3.6]decan-2-yl)(1H-1,2,4-triazol-1-yl)methanone] | ≤ 0.5 | greater than 1 | – | ≤ 1 | – | +++ (+++ indicates greater than 20% labelling) | –

The next lines start with results.

IC50 (A549 cells) [µM] | ratio of IC50 against a G12D cell line to IC50 against a G12S cell line (A549 cells; K-Ras G12D cell line such as GP2D relative to K-Ras G12S cell line such as A549, greater than 1, 2, 3, 4, 5, 10, 15 or even greater, 8640 min) | SMILES | Ratio of IC50 KRAS G12D vs. IC50 KRAS G12S (K-Ras G12S) | IC50 (GP2D cells) [µM] | half-life at 0.5 µM ([1]; liver microsomes, pH 7.4) [min] | % G12S Modification at 24 hr. [2] | T1/2 ([1]; 0.5 µM)
≤ 0.5 | – | N#Cc1c(N)sc2c(F)ccc(-c3c(Cl)cc4c(N5CCC6CN(C(=O)n7cncn7)CC65)nc(OC[C@@]56CCCN5C[C@H](F)C6)nc4c3F)c12 (stereo partly drawn) [Compound A178, 4-(4-(5-(1H-1,2,4-triazole-1-carbonyl)hexahydropyrrolo[3,4-b]pyrrol-1(2H)-yl)-6-chloro-8-fluoro-2-(((2R,7aS)-2-fluorotetrahydro-1H-pyrrolizin-7a(5H)-yl)methoxy)quinazolm-7-yl)-2-amino-7-fluorobenzo[b]thiophene-3-carbonitrile] | – | ≤ 1 | – | +++ (+++ indicates greater than 20% labelling) | –
≤ 0.5 | – | C[C@H](Oc1nc(N2CCOC3(CN(C(=O)n4cncn4)C3)C2)c2cc(Cl)c(-c3ccc(F)c4sc(N)c(C#N)c34)c(F)c2n1)[C@@H]1CCCN1C [Compound A275, 4-(4-(2-(1H-1,2,4-triazole-1-carbonyl)-5-oxa-2,8-diazaspiro[3.5]nonan-8-yl)-6-chloro-8-fluoro-2-((S)-1-((S)-1-methylpyrrolidin-2-yl)ethoxy)quinazolin-7-yl)-2-amino-7-fluorobenzo[b]thiophene-3-carbonitrile] | – | 1 to 10 | – | +++ (+++ indicates greater than 20% labelling) | –

Reference: patent EP4389751A1, “HETEROCYCLIC COMPOUNDS AND USES THEREOF” (Kumquat Biosciences Inc., priority 2021, dated 2024)
